System: NCI-H1417 cells
Assay: Cell growth suppression test (CellTiter-Glo Luminescent Cell Viability Assay, 10 days treatment)
Type: cell-based
Settings: Homo sapiens, 240 h, treated for 10 days
Description: Cell growth suppression effects of the synthesized compounds on NCI-H1417 cells were identified. The cells were treated with the synthesized compounds for 10 days. Then, in order to test the cell growth suppression, CellTiter-Glo Luminescent Cell Viability Assay (available from Promega, USA) was used. This test is to measure emission signals proportional to the number of ATPs based on a fixed amount of ATPs, which represents the presence of metabolically active cells, thereby determining the number of viable cells. The results are expressed as a Gl50 value. As for a control, GSK2879552 (available from GlaxoSmithKline USA) was used.

| SMILES | GI50 [µM] |
| --- | --- |
| CN(C)C1CCN(c2ccc(-n3c(-c4ccc(C#N)c(F)c4)nc4c(N5CCC[C@@H](N)C5)ccnc43)c(F)c2)C1 (stereo partly drawn) [Example 57, 4-(7-((R)-3-aminopiperidine-1-yl)-3-(4-(3-(dimethylamino)pyrrolidine-1-yl)-2-fluorophenyl)-3H-imidazo[4,5-b]pyridine-2-yl)-2-fluorobenzonitrile] | 0.053 |
| COc1cc(C#N)ccc1-c1nc2c(N3CCC[C@@H](N)C3)ccnc2n1-c1ccc(N2CC[C@H](OC)C2)cc1F [Example 53, 4-(7-((R)-3-aminopiperidine-1-yl)-3-(2-fluoro-4-((S)-3-methoxypyrrolidine-1-yl)phenyl)-3H-imidazo[4,5-b]pyridine-2-yl)-3-methoxybenzonitrile] | > 1 |
| Cc1ccc(-n2c(-c3ccc(C#N)c(F)c3)nc3c(N4CCC[C@@H](N)C4)ccnc32)nc1 [Example 45, (R)-4-(7-(3-aminopiperidine-1-yl)-3-(5-methylpyridine-2-yl)-3H-imidazo[4,5-b]pyridine-2-yl)-2-fluorobenzonitrile] | 0.171 |
| Cn1ncc2cc(-n3c(-c4ccc(C#N)c(F)c4)nc4c(N5CCC[C@@H](N)C5)ccnc43)ccc21 [Example 55, (R)-4-(7-(3-aminopiperidine-1-yl)-3-(1-methyl-1H-indazole-5-yl)-3H-imidazo[4,5-b]pyridine-2-yl)-2-fluorobenzonitrile] | 0.0079 |
| CO[C@H]1CCN(c2ccc(-n3c(-c4ccc(C#N)cc4F)nc4c(N5CCC[C@@H](N)C5)ccnc43)c(F)c2)C1 [Example 52, 4-(7-((R)-3-aminopiperidine-1-yl)-3-(2-fluoro-4-((S)-3-methoxypyrrolidine-1-yl)phenyl)-3H-imidazo[4,5-b]pyridine-2-yl)-3-fluorobenzonitrile] | 0.03 |
| CO[C@H]1CCCN(c2ccc(-n3c(-c4ccc(C#N)c(F)c4)nc4c(N5CCC[C@@H](N)C5)ccnc43)c(F)c2)C1 [Example 56] | 0.014 |
| N#Cc1ccc(-c2nc3c(N4CCC[C@@H](N)C4)ccnc3n2-c2cccc(OCCN3CCOCC3)c2)cc1F [Example 37, (R)-4-(7-(3-aminopiperidine-1-yl)-3-(3-(2-morpholinoethoxy)phenyl)-3H-imidazo[4,5-b]pyridine-2-yl)-2-fluorobenzonitrile] | 0.148 |
| C=Cc1cccc(-n2c(-c3ccc(C#N)c(F)c3)nc3c(N4CCC[C@@H](N)C4)ccnc32)c1 [Example 47, (R)-4-(7-(3-aminopiperidine-1-yl)-3-(3-vinylphenyl)-3H-imidazo[4,5-b]pyridine-2-yl)-2-fluorobenzonitrile] | 0.36 |
| COCCCN(C)c1ccc(-n2c(-c3ccc(C#N)c(F)c3)nc3c(N4CCC[C@@H](N)C4)ccnc32)cc1 [Example 48, (R)-4-(7-(3-aminopiperidine-1-yl)-3-(4-((3-methoxypropyl)(methyl)amino)phenyl)-3H-imidazo[4,5-b]pyridine-2-yl)-2-fluorobenzonitrile] | 0.023 |
| CC(C)c1ccc(-n2c(-c3ccc(C#N)c(F)c3)nc3c(N4CCC[C@@H](N)C4)ccnc32)cc1 [Example 43, (R)-4-(7-(3-aminopiperidine-1-yl)-3-(4-isopropylphenyl)-3H-imidazo[4,5-b]pyridine-2-yl)-2-fluorobenzonitrile] | 0.06 |
| N#Cc1ccc(-c2nc3c(N4CCC[C@@H](N)C4)ccnc3n2-c2ccc(OC3CCCC3)cc2F)cc1F [Example 30] | 0.062 |
| N#Cc1ccc(-c2nc3c(N4CCC[C@@H](N)C4)ccnc3n2-c2ccc(C3CCCCC3)cc2)cc1F [Example 46, (R)-4-(7-(3-aminopiperidine-1-yl)-3-(4-cyclohexylphenyl)-3H-imidazo[4,5-b]pyridine-2-yl)-2-fluorobenzonitrile] | 0.303 |
| N#Cc1ccc(-c2nc3c(N4CCC[C@@H](N)C4)ccnc3n2-c2ccc3scnc3c2)cc1F [Example 58, (R)-4-(7-(3-aminopiperidine-1-yl)-3-(benzo[d]thiazole-5-yl)-3H-imidazo[4,5-b]pyridine-2-yl)-2-fluorobenzonitrile] | 0.064 |
| CO[C@H]1CCN(c2ccc(-n3c(-c4ccc(C#N)c(F)c4)nc4c(N5CCC6(CC5)CNC6)ccnc43)c(F)c2)C1 [Example 66, (S)-2-fluoro-4-(3-(2-fluoro-4-(3-methoxypyrrolidine-1-yl)phenyl)-7-(2,7-diazaspiro[3.5]nonane-7-yl)-3H-imidazo[4,5-b]pyridine-2-yl)benzonitrile] | 0.023 |
| N#Cc1ccc(-c2nc3c(N4CCC[C@@H](N)C4)ccnc3n2-c2ccc(N3CCOCC3)cc2F)cc1F [Example 33, (R)-4-(7-(3-aminopiperidine-1-yl)-3-(2-fluoro-4-morpholinophenyl)-3H-imidazo[4,5-b]pyridine-2-yl)-2-fluorobenzonitrile] | 0.044 |
| CO[C@H]1CCN(c2ccc(-n3c(-c4ccc(C#N)c(F)c4)nc4c(N5CCC6(CCNC6)C5)ccnc43)c(F)c2)C1 (stereo partly drawn) [Example 65, 2-fluoro-4-(3-(2-fluoro-4-((S)-3-methoxypyrrolidine-1-yl)phenyl)-7-(2,7-diazaspiro[4.4]nonane-2-yl)-3H-imidazo[4,5-b]pyridine-2-yl)benzonitrile] | 0.039 |
| CO[C@H]1CCN(c2ccc(-n3c(-c4ccc(C#N)c(F)c4)nc4c(N5CCC6(CCNCC6)CC5)ccnc43)c(F)c2)C1 [Example 70, (S)-2-fluoro-4-(3-(2-fluoro-4-(3-methoxypyrrolidine-1-yl)phenyl)-7-(3,9-diazaspiro[5.5]undecan-3-yl)-3H-imidazo[4,5-b]pyridine-2-yl) benzonitrile] | 0.034 |
| N#Cc1ccc(-c2nc3c(N4CCC[C@@H](N)C4)ccnc3n2-c2ccc3c(c2)CCC3)cc1F [Example 42, (R)-4-(7-(3-aminopiperidine-1-yl)-3-(2,3-dihydro-1H-indene-5-yl)-3H-imidazo[4,5-b]pyridine-2-yl)-2-fluorobenzonitrile] | 0.026 |
| Cn1ccc2cc(-n3c(-c4ccc(C#N)c(F)c4)nc4c(N5CCC[C@@H](N)C5)ccnc43)cnc21 [Example 54, (R)-4-(7-(3-aminopiperidine-1-yl)-3-(1-methyl-1H-pyrrolo[2,3-b]pyridine-5-yl)-3H-imidazo[4,5-b]pyridine-2-yl)-2-fluorobenzonitrile] | 0.021 |
| CO[C@H]1CCN(c2ccc(-n3c(-c4ccc(C#N)c(F)c4)nc4c(N5CC6CNCC(C6)C5)ccnc43)c(F)c2)C1 [Example 71, 4-(7-(3,7-diazabicyclo[3.3.1]nonane-3-yl)-3-(2-fluoro-4-((S)-3-methoxypyrrolidine-1-yl)phenyl)-3H-imidazo[4,5-b]pyridine-2-yl)-2-fluorobenzonitrile] | 0.044 |
| CO[C@H]1CCN(c2ccc(-n3c(-c4ccc(C#N)c(F)c4)nc4c(N5C6CCC5CC(N)C6)ccnc43)c(F)c2)C1 (stereo partly drawn) [Example 63, 4-(7-(3-amino-8-azabicyclo[3.2.1]octane-8-yl)-3-(2-fluoro-4-((S)-3-methoxypyrrolidine-1-yl)phenyl)-3H-imidazo[4,5-b]pyridine-2-yl)-2-fluorobenzonitrile] | 0.29 |
| CO[C@H]1CCN(c2ccc(-n3c(-c4ccc(C#N)c(F)c4)nc4c(N5CC6COCC6C5)ccnc43)c(F)c2)C1 (stereo partly drawn) [Example 68, 2-fluoro-4-(3-(2-fluoro-4-((S)-3-methoxypyrrolidine-1-yl)phenyl)-7-(tetrahydro-1H-furo[3,4-c]pyrrole-5(3H)-yl)-3H-imidazo[4,5-b]pyridine-2-yl)benzonitrile] | > 1 |
| CCN(CC)c1ccc(-n2c(-c3ccc(C#N)c(F)c3)nc3c(N4CCC[C@@H](N)C4)ccnc32)cc1 [Example 21, (R)-4-(7-(3-aminopiperidine-1-yl)-3-(4-(diethylamino)phenyl)-3H-imidazo[4,5-b]pyridine-2-yl)-2-fluorobenzonitrile] | 0.027 |
| CCCCCCc1ccc(-n2c(-c3ccc(C#N)c(F)c3)nc3c(N4CCC[C@@H](N)C4)ccnc32)cc1 [Example 51, (R)-4-(7-(3-aminopiperidine-1-yl)-3-(4-hexylphenyl)-3H-imidazo[4,5-b]pyridine-2-yl)-2-fluorobenzonitrile] | 0.242 |
| N#Cc1ccc(-c2nc3c(N4CCC[C@@H](N)C4)ccnc3n2-c2ccc(O)cc2)cc1F [Example 40, (R)-4-(7-(3-aminopiperidine-1-yl)-3-(4-hydroxyphenyl)-3H-imidazo[4,5-b]pyridine-2-yl)-2-fluorobenzonitrile] | 0.042 |
| N#Cc1ccc(-c2nc3c(N4CCC[C@@H](N)C4)ccnc3n2-c2ccc(C(=O)N3CCOCC3)cc2)cc1F [Example 38, (R)-4-(7-(3-aminopiperidine-1-yl)-3-(4-(morpholino-4-carbonyl)phenyl)-3H-imidazo[4,5-b]pyridine-2-yl)-2-fluorobenzonitrile] | 0.612 |
| CN1CCN(c2ccc(-n3c(-c4ccc(C#N)c(F)c4)nc4c(N5CCC[C@@H](N)C5)ccnc43)c(F)c2)CC1 [Example 34] | 0.101 |
| Cn1ccc2cc(-n3c(-c4ccc(C#N)c(F)c4)nc4c(N5CCC[C@@H](N)C5)ccnc43)ccc21 [Example 44, (R)-4-(7-(3-aminopiperidine-1-yl)-3-(1-methyl-1H-indole-5-yl)-3H-imidazo(4,5-b)pyridine-2-yl)-2fluorobenzonitrile] | 0.171 |
| CO[C@H]1CCN(c2ccc(-n3c(-c4ccc(C#N)c(F)c4)nc4c(N5CC6(CNC6)C5)ccnc43)c(F)c2)C1 [Example 69, (S)-2-fluoro-4-(3-(2-fluoro-4-(3-methoxypyrrolidine-1-yl)phenyl)-7-(2,6-diazaspiro[3.3]heptane-2-yl)-3H-imidazo[4,5-b]pyridine-2-yl) benzonitrile] | > 1 |
| O=C(O)c1ccc(CN2CCC(CN[C@@H]3C[C@H]3c3ccccc3)CC2)cc1 [Control, GSK2879552, reference compound] | 0.311 |

From US12479845B2, “Imidazopyridine derivative compounds and use of same” (HANMI PHARM. CO., LTD., priority 2019, dated 2025)
